Data set [1] relates to Schistosoma mansoni cercariae. The data set can be described thus: Activity against Schistosoma mansoni cercariae (survival/mobility under stereomagnifier). The class given is cell-based. Also noted: key: no effect during the entire test period of 120 minutes; 1: weak effect (the cercariae have a strongly reduced mobility); 2: good effect (the cercariae are only slightly mobile and bent); 3: full effect (the cercariae are completely immobile). The following applies: 500 >1/l final concentration of the active compounds; 5 μl active compound in 25 μl PEG300 + 9 ml aquarium water + 1 ml cercariae suspension; test period 120 minutes. The procedure:
Activity Against Schistosoma Mansoni Cercariae
[500 >1/l Final Concentration of the Active Compounds]
Snails (Biomphalaria glabrata) were infected by incubating each of them with 8 miracidia in 10 ml of water overnight. About 6 to 9 weeks after the infection, cercariae were obtained by irradiating the snails, which had been kept in darkness, with light, followed by collection of the swarming cercariae within 2 hours.
Such an amount of cercariae-containing water (1 or 2 ml, see below) was added to the test batches that each batch contained about 100 to 150 cercariae.
5 μl of active compound were mixed thoroughly with 25 μl of PEG300. 9 ml of aquarium water was then added, and the batch was shaken vigorously. After (delayed) addition of 1 ml of cercariae suspension, survival of the cercariae was in each case observed immediately using a stereomagnifier.

Data set [2] concerns cercariae of Schistosoma mansoni. The following applies: literature (Fripp and Armstrong 1973; Salafsky et al. 1998); cited from earlier work.
For data set [3] the following is noted: EU Directive on Dangerous Substances; Registry of Toxic Effects of Chemical Substances; cited from earlier work.
Data set [4] relates to cercariae of Schistosoma mansoni. The following applies: literature (Bruce et al. 1992), monkeys, topical; cited from earlier work.

Regarding `CC(C)(C)C(=O)N1CCCCC1CCO` (stereo not drawn), in data set [1], the Assessment turned out to be 3.

Turning to `CCCCC(=O)N1CCCCC1CCO` (stereo not drawn), the Assessment in data set [1] turned out to be 2.

For `CCCCC(=O)N1CCCCC1CCOC` (stereo not drawn), the Assessment in data set [1] stood at 2.

In the case of `CCN(CC)C(=O)CC1CCCCC1`, the Assessment in data set [1] is listed as 3.

For the molecule `CCN(CC)C(=O)c1cccc(C)c1` [N,N-Diethyl-m-toluamide (DEET), N,N-Diethyl-m-toluamide], the “effect on cercariae of Schistosoma mansoni” value in data set [2] is listed as “acts against cercariae”.

As for `O=C(Nc1ccc([N+](=O)[O-])cc1Cl)c1cc(Cl)ccc1O` [Niclosamide], in data set [3], the toxicity entry is on record as “may possibly cause inheritable genetic damage”. Also, the “action against the penetration of cercariae” value in data set [4] was “acts against the penetration of cercariae”.

For the molecule `Oc1c(Cl)cc(Cl)c(Cl)c1Cc1c(O)c(Cl)cc(Cl)c1Cl` [hexachlorophene], the toxicity entry in data set [3] was “toxic on contact with the skin and when swallowed”. Also, the “effect on cercariae of Schistosoma mansoni” value in data set [2] is given as “lethal effect”.

These data come from patent US20040014813A1, “Anthelminthic agents for the prevention of parasitic infections in humans and animals II” (priority 2000, published 2004).
